Results taken from patent US20110306631A1, “TRIPLE SUBSTITUTED PHENANTHROLINE DERIVATIVES FOR THE TREATMENT OF NEURODEGENERATIVE OR HAEMATOLOGICAL DISEASES OR CONDITIONS, OR CANCER” (NOSCIRA, S.A., priority 2008, published 2011).

How the values were obtained:
SH-SY5Y cells = assay: Neuroprotection against Aβ25-35 toxicity (LDH); format: cell-based, human; settings: pre-treated 1 hour, then 24 hours 200 μM Aβ25-35
Method: In order to evaluate potential neuroprotection of compounds, SH-SY5Y cells, cultured in 96-well plates, were pre-treated for 1 hour with the compound at different concentrations and then exposed 24 hours to 200 μM Aβ25-35 (Neosystem) to induce extensive oxidative stress and cell death. The ability of the compound of protecting against this toxicity is then evaluated by measuring intracellular LDH, using the colorimetric LDH assay.
It is widely accepted that the neurotoxic activity of Aβ resides within amino acids 25-35 (see e.g. Yankner B A et al., (1990) Neurotrophic and neurotoxic effects of amyloid β protein: reversal by tachykinin neuropeptides; Science 250:279-282).

[1] = system: SH-SY5Y human neuroblastoma cells; assay: Protection against hydrogen peroxide-induced cell death (LDH); format: cell-based; settings: compound 1 h before H2O2 100 μM during 24 h
Method: The aim of this assay is to determine the neuroprotective effect of the compounds of formula (I), when human neuroblastoma cells are exposed to oxidative stress induced by hydrogen peroxide, which is highly deleterious to the cell and its accumulation causes oxidation of cellular targets such as DNA, proteins, and lipids leading to mutagenesis and cell death.
SH-SY5Y human neuroblastoma cells are seeded into 96-well culture plate at a density of 10^4 cells/well. Cells are exposed to different concentrations of the compound one hour before the treatment with H2O2 100 μM during 24 h. 5 mM N-acetylcysteine (NAC), a known anti-oxidant agent was used as a positive control, and preincubated 1 hour before the treatment with H2O2. After 24 h, the medium is removed and cells attached to the bottom of the well are lysed by adding 50 μl of Triton X-100 1% in Krebs-Hepes during 5 minutes at room temperature. For LDH release quantification, Roche cytotoxicity detection kit (Cat. No. 11 644 793 001) was used.

[2] = system: SH-SY5Y human neuroblastoma cells; assay: Protection against 6-OHDA-induced cell death (LDH); format: cell-based; settings: preincubated 2 hours before 6-OHDA 75 μM during 16 hours, 10% Foetal bovine serum
Text: The aim of this experiment is to determine the protective effect of the compounds of formula (I) against the toxicity caused by 6-OHDA. This toxin induces a cell death similar to which occurs in Parkinson's disease, destroying dopaminergic neurons (“MPTP and 6-hydroxydopamine-induced neurodegeneration as models for Parkinson's disease: neuroprotective strategies”; Grunblatt E, et al.; J Neurol. 2000 April; 247 Suppl 2:II95-102).
Two or three days before the experiment, the SH-SY5Y human neuroblastoma cells are seeded into 96-well culture plate at a density of 10^4 cells/well. Cells are exposed to the treatment with 6-OHDA and, finally, cell death is measured by LDH quantification. As positive control we used NAC.
NAC and the compound of formula (I) are preincubated during 2 hours before the treatment with 6-OHDA 75 μM during 16 hours. The assay is performed in medium containing 10% Foetal bovine serum.
For each compound the minimum concentration of compound of formula (I) at which a neuroprotective effect is shown.

[3] = system: Aβ (1-40) secretion, CHO7W (stably transfected with human APP751 wt cDNA); assay: Inhibition of Aβ(1-40) secretion (ELISA of cellular supernatants); format: cell-based; settings: CHO7W cells, Aβ(1-40) in supernatants
Text: To quantitate Aβ secretion ELISA-based method was used. The assay consists in detection of antigen by selective monoclonal anti-Aβ-antibodies at two different epitopes forming a “Sandwich-complex”, that is detected by colorimetric measure due to the binding of a secondary antibody conjugated with peroxidase that catalyses the conversion of a substrate or chromogen, TMB, into a coloured product, directly proportional to the peptide quantity in the sample. The Aβ production has been analyzed by ELISA, using a colorimetric commercial kit: H-amuloid b-30 ELISA (The Genetics Company).
Aβ (1-40) were quantified from cellular supernatants. An APP-transfected cell line has been employed for the experiments: CHO7W (stably transfected with human APP751 wt cDNA). The cells were grown in a culture medium consisting of DMEM supplemented with 2% Fetal bovine serum, 1% penicillin-streptomycin, 1% L-glutamine and 200 μg/ml G418. Cells are seeded in 96-well culture microplate, at 5000 cells/well and treatment with different compounds at different concentrations is performed 24 hour after seeding.

[4] = system: SH-SY5Y human neuroblastoma cells; assay: Toxicity: cell viability by LDH activity release; format: cell-based; settings: 24 h
Method: The potential effects on cell viability of the tested compounds were assessed in SH-SY5Y human neuroblastoma cells, by quantification of Lactate dehydrogenase (LDH) activity release. SH-SY5Y human neuroblastoma cells were seeded into 96-well culture plates at 10^4 cells/well. The medium was then removed and the cells incubated with different concentrations of the compounds during 24 h. […] After 24 h, the medium was removed and cells attached to the bottom of the well were lysed by adding 50 μl of Krebs-Hepes; Triton X-100 1% during 5 minutes at room temperature. For LDH release quantification, the Roche cytotoxicity detection kit (Cat. No. 11 644 793 001) was used. The LDH activity was measured by its absorbance at 492 nm with reference wavelength 620 nm.
In Table 2, for each compound the maximum concentration at which cell viability was tested is indicated in the second column. In the third column, it is indicated whether at this maximum concentration the compound affected or not cell viability (>20% of cell death).

[5] = maximum concentration tested 1000 μM
[6] = maximum concentration tested 100 μM

## COCCOc1cc2cccnc2c2nc(/C=N/O)cc(OC)c12 [C, 4-methoxy-5-(2-methoxy-ethoxy)-[1,10]-phenanthroline-2-carbaldehyde oxime]
SH-SY5Y cells
  Protection β-Amiloyd (minimum concentration showing neuroprotection against Aβ25-35 toxicity): 5 µM
[1]
  Protect H2O2 (minimum concentration for which protection against H2O2 was determined): 0.005 µM
[2]
  Protection 6-OHDA (minimum concentration at which a neuroprotective effect is shown): 0.5 µM
[3]
  inhibition Aβ secretion (minimum concentration at which the compound inhibits beta-amyloid secretion): 0.1 µM
[4]; [5]
  Yes/No: compound affected cell viability at maximum concentration tested: N (affected or not cell viability (>20% of cell death))

## COc1cc2c(SC)cc(/C=N/O)nc2c2ncccc12 [E, 6-methoxy-4-methylsulfanyl-[1,10]phenanthroline-2-carbaldehyde oxyme]
SH-SY5Y cells
  Protection β-Amiloyd (minimum concentration showing neuroprotection against Aβ25-35 toxicity): 10 µM
[1]
  Protect H2O2 (minimum concentration for which protection against H2O2 was determined): 0.05 µM
[2]
  Protection 6-OHDA (minimum concentration at which a neuroprotective effect is shown): 0.5 µM
[3]
  inhibition Aβ secretion (minimum concentration at which the compound inhibits beta-amyloid secretion): 10 µM
[4]; [6]
  Yes/No: compound affected cell viability at maximum concentration tested: Y (affected or not cell viability (>20% of cell death))

## CSc1cc(/C=N/O)nc2c1c(C)cc1cccnc12 [D, 5-methyl-4-methylsulfanyl-[1,10]phenanthroline-2-carbaldehyde oxime]
SH-SY5Y cells
  Protection β-Amiloyd (minimum concentration showing neuroprotection against Aβ25-35 toxicity): 0.5 µM
[1]
  Protect H2O2 (minimum concentration for which protection against H2O2 was determined): 0.5 µM
[2]
  Protection 6-OHDA (minimum concentration at which a neuroprotective effect is shown): 0.05 µM
[3]
  inhibition Aβ secretion (minimum concentration at which the compound inhibits beta-amyloid secretion): 1 µM
[4]; [5]
  Yes/No: compound affected cell viability at maximum concentration tested: N (affected or not cell viability (>20% of cell death))

## COc1cc2cccnc2c2nc(/C=N/O)cc(SC)c12 [A, 5-methoxy-4-methylsulfanyl-[1,10]-phenanthroline-2-carbaldehyde oxime]
SH-SY5Y cells
  Protection β-Amiloyd (minimum concentration showing neuroprotection against Aβ25-35 toxicity): 5 µM
[1]
  Protect H2O2 (minimum concentration for which protection against H2O2 was determined): 0.05 µM
[2]
  Protection 6-OHDA (minimum concentration at which a neuroprotective effect is shown): 0.05 µM
[3]
  inhibition Aβ secretion (minimum concentration at which the compound inhibits beta-amyloid secretion): 0.1 µM
[4]; [6]
  Yes/No: compound affected cell viability at maximum concentration tested: Y (affected or not cell viability (>20% of cell death))

## COc1cc(/C=N/O)nc2c1c(F)cc1cccnc12 [B, 5-fluoro-4-methoxy-[1,10]-phenanthroline-2-carbaldehyde oxime]
SH-SY5Y cells
  Protection β-Amiloyd (minimum concentration showing neuroprotection against Aβ25-35 toxicity): 5 µM
[1]
  Protect H2O2 (minimum concentration for which protection against H2O2 was determined): 0.05 µM
[2]
  Protection 6-OHDA (minimum concentration at which a neuroprotective effect is shown): 0.05 µM
[3]
  inhibition Aβ secretion (minimum concentration at which the compound inhibits beta-amyloid secretion): 1 µM
[4]; [5]
  Yes/No: compound affected cell viability at maximum concentration tested: N (affected or not cell viability (>20% of cell death))

## COc1cc2c(=O)cc(/C=N/O)[nH]c2c2ncccc12 [F, 6-methoxy-4-oxo-1,4-dihydro-[1,10]phenanthroline-2-carbaldehyde oxime]
[2]
  Protection 6-OHDA (minimum concentration at which a neuroprotective effect is shown): 10 µM
[4]; [5]
  Yes/No: compound affected cell viability at maximum concentration tested: N (affected or not cell viability (>20% of cell death))
